Data published in US20120309750A1, “5-MEMBERED HETEROCYCLE DERIVATIVES AND MANUFACTURING PROCESS THEREOF” (ILDONG PHARM CO., LTD., priority 2010, published 2012).

Columns and labels:
yeast HSP90 = yeast HSP90 (Saccharomyces cerevisiae, UniProt P02829); assay: Hsp90 ATPase assay (malachite green); assay type: biochemical
Description: (§1) For present invention, the ATPase activity of yeast HSP90 was measured using malachite green assay. Formula I compounds for primary antitumoral activity were treated in human colorectal cancer cells (HCT116) showing increased expression levels of HSP90 client protein and cotoxicity IC50 values was measured as a result.

[1] = test system: human colorectal cancer cells (HCT116); assay: Growth inhibition assay (cytotoxicity) in HCT116; assay type: cell-based; settings: HCT-116
Description: as §1

Sequence of yeast HSP90 (P02829 whole entry): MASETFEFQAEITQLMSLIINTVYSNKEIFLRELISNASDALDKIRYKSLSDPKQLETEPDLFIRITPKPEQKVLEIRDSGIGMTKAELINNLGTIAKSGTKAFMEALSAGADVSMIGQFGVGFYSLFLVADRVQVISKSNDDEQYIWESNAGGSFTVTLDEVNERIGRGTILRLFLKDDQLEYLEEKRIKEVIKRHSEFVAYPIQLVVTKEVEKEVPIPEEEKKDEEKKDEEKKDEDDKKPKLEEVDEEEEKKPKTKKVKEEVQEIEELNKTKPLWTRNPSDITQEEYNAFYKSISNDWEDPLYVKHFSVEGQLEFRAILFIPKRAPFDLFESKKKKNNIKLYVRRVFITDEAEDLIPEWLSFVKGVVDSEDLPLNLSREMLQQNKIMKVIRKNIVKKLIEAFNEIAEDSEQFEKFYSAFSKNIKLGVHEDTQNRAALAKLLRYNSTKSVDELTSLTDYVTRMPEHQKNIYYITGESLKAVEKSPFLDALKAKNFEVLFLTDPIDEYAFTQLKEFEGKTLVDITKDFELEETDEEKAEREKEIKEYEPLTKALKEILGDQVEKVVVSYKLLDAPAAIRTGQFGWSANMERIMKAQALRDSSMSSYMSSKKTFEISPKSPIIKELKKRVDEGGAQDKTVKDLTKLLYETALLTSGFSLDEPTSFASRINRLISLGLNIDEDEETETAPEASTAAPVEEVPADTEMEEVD

| Structure (SMILES) | IC50 (yeast HSP90) | IC50 [1] |
| --- | --- | --- |
| CCNC(=O)c1noc(-c2cc(C(C)C)c(O)cc2O)c1-c1cc(C(=O)O)no1 [Compound I-26, 5-(2,4-Dihydroxy-5-isopropylphenyl)-3-(ethylcarbamoyl)-4,5′-biisoxazole-3′-carboxylic acid] | > 1000 nM | > 1000 nM |
| CCNC(=O)c1noc(-c2cc(C(C)C)c(O)cc2O)c1-c1cc(CF)no1 [Compound I-28, 5-(2,4-Dihydroxy-5-isopropylphenyl)-N-ethyl-3′-(fluoromethyl)-4,5′-biisoxazole-3-carboxamide] | < 500 nM | < 500 nM |
| CCNC(=O)c1noc(-c2cc(C(C)C)c(O)cc2O)c1-c1cc(CN)no1 [Compound I-30, 3′-(Aminomethyl)-5-(2,4-dihydroxy-5-isopropylphenyl)-N-ethyl-4,5′-biisoxazole-3-carboxamide] | 500 to 1000 nM | < 500 nM |
| CCNC(=O)c1noc(-c2cc(C(C)C)c(O)cc2O)c1-c1cc(COS(C)(=O)=O)no1 [Compound I-32, (5-(2,4-Dihydroxy-5-isopropylphenyl)-3-(ethylcarbamoyl)-4,5′-biisoxazol-3′-yl)methyl methanesulfonate] | < 500 nM | < 500 nM |
| CCNC(=O)c1noc(-c2cc(C(C)C)c(O)cc2O)c1-c1cc(COCC(=O)O)no1 [Compound I-33, 2-((5-(2,4-Dihydroxy-5-isopropylphenyl)-3-(ethylcarbamoyl)-4,5′-biisoxazol-3′-yl)methoxy)acetic acid] | > 1000 nM | > 1000 nM |
| CCNC(=O)c1noc(-c2cc(C(C)C)c(O)cc2O)c1-c1cc(C)no1 [Compound I-37, 5-(2,4-Dihydroxy-5-isopropylphenyl)-N-ethyl-3′-methyl-4,5′-biisoxazole-3-carboxamide] | < 500 nM | < 500 nM |
| CCNC(=O)c1noc(-c2cc(C(C)C)c(O)cc2O)c1-c1cc(CN2CCCCC2)no1 [Compound I-38, 5-(2,4-Dihydroxy-5-isopropylphenyl)-N-ethyl-3′-(piperidin-1-ylmethyl)-4,5′-biisoxazole-3-carboxamide] | 500 to 1000 nM | < 500 nM |
| CCNC(=O)c1noc(-c2cc(C(C)C)c(O)cc2O)c1-c1cc(CNC(C)C)no1 [Compound I-40, 5-(2,4-Dihydroxy-5-isopropylphenyl)-N-ethyl-3′-((isopropylamino)methyl)-4,5′-biisoxazole-3-carboxamide] | 500 to 1000 nM | < 500 nM |
| C=CCNCc1cc(-c2c(C(=O)NCC)noc2-c2cc(C(C)C)c(O)cc2O)on1 [Compound I-44, 3′-((Allylamino)methyl)-5-(2,4-dihydroxy-5-isopropylphenyl)-N-ethyl-4,5′-biis oxazole-3-carboxamide] | < 500 nM | < 500 nM |
| CCNC(=O)c1noc(-c2cc(C(C)C)c(O)cc2O)c1-c1cc(-c2ccsc2)no1 [Compound I-46, 5-(2,4-Dihydroxy-5-isopropylphenyl)-N-ethyl-3′-(thiophen-3-yl)-4,5′-biisoxazole-3-carboxamide] | 500 to 1000 nM | < 500 nM |
| CCNC(=O)c1noc(-c2cc(C(C)C)c(O)cc2O)c1-c1cc(C#N)no1 [Compound I-48, 3′-Cyano-5-(2,4-dihydroxy-5-isopropylphenyl)-N-ethyl-4,5′-biisoxazole-3-carboxamide] | 500 to 1000 nM | < 500 nM |
| CCNC(=O)c1noc(-c2cc(C(C)C)c(O)cc2O)c1-c1cc(-c2ccccc2)no1 [Compound I-49, 5-(2,4-Dihydroxy-5-isopropylphenyl)-N-ethyl-3′-phenyl-4,5′-biisoxazole-3-carboxamide] | 500 to 1000 nM | 500 to 1000 nM |

Continued, in another order:

| IC50 (yeast HSP90) | Structure (SMILES) | IC50 [1] |
| --- | --- | --- |
| < 500 nM | CCNCc1cc(-c2c(C(=O)NCC)noc2-c2cc(C(C)C)c(O)cc2O)on1 [Compound I-27, 5-(2,4-Dihydroxy-5-isopropylphenyl)-N-ethyl-3′-((ethylamino)methyl)-4,5′-biisoxazole-3-carboxamide] | < 500 nM |
| > 1000 nM | CCNC(=O)c1cc(-c2c(C(=O)NCC)n[nH]c2-c2cc(C(C)C)c(O)cc2O)on1 [Compound I-29, 5-(5-(2,4-Dihydroxy-5-isopropylphenyl)-3-(ethylcarbamoyl)-1H-pyrazol-4-yl)-N-ethylisoxazole-3-carboxamide] | > 1000 nM |
| 500 to 1000 nM | CCNC(=O)c1noc(-c2cc(C(C)C)c(O)cc2O)c1-c1cc(CNC(C)=O)no1 [Compound I-31, 3′-(Acetamidomethyl)-5-(2,4-dihydroxy-5-isopropylphenyl)-N-ethyl-4,5′-biisoxazole-3-carboxamide] | < 500 nM |
| < 500 nM | CCNC(=O)c1noc(-c2cc(C(C)C)c(O)cc2O)c1-c1cc(CNC(=O)CC)no1 [Compound I-34, 5-(2,4-Dihydroxy-5-isopropylphenyl)-N-ethyl-3′-(propionamidomethyl)-4,5′-biisoxazole-3-carboxamide] | < 500 nM |
| < 500 nM | CCNC(=O)c1noc(-c2cc(C(C)C)c(O)cc2O)c1-c1cc(CC#N)no1 [Compound I-35, 3′-(Cyanomethyl)-5-(2,4-dihydroxy-5-isopropylphenyl)-N-ethyl-4,5′-biisoxazole-3-carboxamide] | < 500 nM |
| < 500 nM | CCNC(=O)c1noc(-c2cc(C(C)C)c(O)cc2O)c1-c1cc(COCC(N)=O)no1 [Compound I-36, 3′-((2-Amino-2-oxoethoxy)methyl)-5-(2,4-dihydroxy-5-isopropylphenyl)-N-ethyl-4,5′-biisoxazole-3-carboxamide] | < 500 nM |
| 500 to 1000 nM | CCNC(=O)c1noc(-c2cc(C(C)C)c(O)cc2O)c1-c1cc(CN2CCCC2)no1 [Compound I-39, 5-(2,4-Dihydroxy-5-isopropylphenyl)-N-ethyl-3′-(pyrrolidin-1-ylmethyl)-4,5′-biisoxazole-3-carboxamide] | < 500 nM |
| < 500 nM | CCNC(=O)c1noc(-c2cc(C(C)C)c(O)cc2O)c1-c1cc(CN(C)C)no1 [Compound I-41, 5-(2,4-Dihydroxy-5-isopropylphenyl)-3′-((dimethylamino)methyl)-N-ethyl-4,5′-biisoxazole-3-carboxamide] | < 500 nM |
| < 500 nM | CCNC(=O)c1noc(-c2cc(C(C)C)c(O)cc2O)c1-c1cc(CNC)no1 [Compound I-42, 5-(2,4-Dihydroxy-5-isopropylphenyl)-N-ethyl-3′-((methylamino)methyl)-4,5′-biisoxazole-3-carboxamide] | < 500 nM |
| 500 to 1000 nM | CCNC(=O)c1noc(-c2cc(C(C)C)c(O)cc2O)c1-c1cc(CN2CCN(C)CC2)no1 [Compound I-43, 5-(2,4-Dihydroxy-5-isopropylphenyl)-N-ethyl-3′-((4-methylpiperazin-1-yl)methyl)-4,5′-biisoxazole-3-carboxamide] | < 500 nM |
| < 500 nM | CCCN(CCC)Cc1cc(-c2c(C(=O)NCC)noc2-c2cc(C(C)C)c(O)cc2O)on1 [Compound I-45, 5-(2,4-Dihydroxy-5-isopropylphenyl)-3′-((dipropylamino)methyl)-N-ethyl-4,5′-biisoxazole-3-carboxamide] | < 500 nM |
| < 500 nM | CCNC(=O)c1noc(-c2cc(C(C)C)c(O)cc2O)c1-c1cc(CN2CCSCC2)no1 [Compound I-47, 5-(2,4-Dihydroxy-5-isopropylphenyl)-N-ethyl-3′-(thiomorpholinomethyl)-4,5′-biisoxazole-3-carboxamide] | < 500 nM |
